From the NIST ThermoML archive (doi:10.1007/s10765-006-0018-5) come the findings set out here.

The vapor or sublimation pressure is the pressure of vapour in equilibrium with the condensed phase. Usually refractive index stands for a measure of how strongly the sample bends light.

The conditions of series [1]: Liquid.
Series [2] is described as follows: refractive index (Na D-line) (dimensionless). The note with it: 298.15 K; 101.33 kPa; Liquid; Standard Abbe refractometry.

± gives the expanded uncertainty stated by the source.

With `Cc1ccc(C)cc1` [1,4-dimethylbenzene], the “vapor or sublimation pressure” value in series [1] (410 K) is on record as 97.3 ± 1.6 kPa. The refractive index in series [2] is given as 1.49325 ± 0.00075.

As to `CCCCO` [butan-1-ol], in series [1] (389.5 K), the “vapor or sublimation pressure” value amounted to 97.3 ± 1.6 kPa. Moreover, the refractive index in series [2] stood at 1.3973 ± 0.0008.
